Measurements: patent publication US9416127B2, “Triazole carboxamides and uses thereof” (Hoffmann-La Roche Inc., priority 2012, dated 2016)
Where a name gives a salt, the structure may show the parent alone.

Experiments:
mouse TAAR1 = mouse TAAR1 (Mus musculus (Mouse), UniProt Q923Y8); assay: Radioligand binding assay on mouse TAAR1; conditions: for Ki: mouse TAAR1, HEK-293 membranes, first value of mouse/rat cell
Description: (§1) Construction of TAAR Expression Plasmids and Stably Transfected Cell Lines
(§2) For the construction of expression plasmids the coding sequences of human, rat and mouse TAAR 1 were amplified from genomic DNA essentially as described by Lindemann et al.. The Expand High Fidelity PCR System (Roche Diagnostics) was used with 1.5 mM Mg^2+ and purified PCR products were cloned into pCR2.1-TOPO cloning vector (Invitrogen) following the instructions of the manufacturer. PCR products were subcloned into the pIRESneo2 vector (BD Clontech, Palo Alto, Calif.), and expression vectors were sequence verified before introduction in cell lines.
(§3) HEK293 cells (ATCC # CRL-1573) were cultured essentially as described by Lindemann et al. (2005). For the generation of stably transfected cell lines HEK293 cells were transfected with the pIRESneo2 expression plasmids containing the TAAR coding sequences (described above) with Lipofectamine 2000 (Invitrogen) according to the instructions of the manufacturer, and 24 hrs post transfection the culture medium was supplemented with 1 mg/ml G418 (Sigma, Buchs, Switzerland). After a culture period of about 10 d clones were isolated, expanded and tested for responsiveness to trace amines (all compounds purchased from Sigma) with the cAMP Biotrak Enzyme immunoassay (EIA) System (Amersham) following the non-acetylation EIA procedure provided by the manufacturer.
Radioligand Binding Assay on Mouse TAAR1
(§4) Membrane Preparation and Radioligand Binding.
(§5) HEK-293 cells stably expressing mouse TAAR1 were maintained at 37° C. and 5% CO2 in DMEM high glucose medium, containing fetal calf serum (10%, heat inactivated for 30 min at 56° C.), penicillin/streptomycin (1%), and 375 μg/ml geneticin (Gibco). Cells were released from culture flasks using trypsin/EDTA, harvested, washed twice with ice-cold PBS (without Ca^2+ and Mg^2+), pelleted at 1'000 rpm for 5 min at 4° C., frozen and stored at −80° C. Frozen pellets were suspended in 20 ml HEPES-NaOH (20 mM, pH 7.4) containing 10 mM EDTA and homogenized with a Polytron (PT 6000, Kinematica) at 14'000 rpm for 20 s. The homogenate was centrifuged at 48'000×g for 30 min at 4° C. Subsequently, the supernatant was removed and discarded, and the pellet resuspended in 20 ml HEPES-NaOH (20 mM, pH 7.4) containing 0.1 mM EDTA using the Polytron (20 s at 14'000 rpm). This procedure was repeated and the final pellet resuspended in HEPES-NaOH containing 0.1 mM EDTA and homogenized using the Polytron. Typically, aliquots of 2 ml membrane portions were stored at −80° C. With each new membrane batch the dissociation constant (Kd) was determined via a saturation curve. […] Nonspecific binding was defined as the amount of ^3[H]—(S)-4-[(ethyl-phenyl-amino)-methyl]-4,5-dihydro-oxazol-2-ylamine bound in the presence of 10 μM unlabeled ligand. All compounds were tested at a broad range of concentrations (10 pM to 10 μM) in duplicates. […] The 96 deep well plates were incubated for 1 hr at 4° C. Incubations were terminated by rapid filtration through Unifilter-96 plates (Packard Instrument Company) and glass filters GF/C (Perkin Elmer) presoaked for 1 hr in polyethylenimine (0.3%) and washed 3 times with 1 ml of cold binding buffer. After addition of 45 μl of Microscint 40 (PerkinElmer) the Unifilter-96 plate was sealed and after 1 hr the ratioactivity counted using a TopCount Microplate Scintillation Counter (Packard Instrument Company).

rat TAAR1 = rat TAAR1 (Rattus norvegicus (Rat), UniProt Q923Y9); assay: Radioligand binding assay on rat TAAR1; conditions: for Ki: rat TAAR1, HEK-293 membranes, second value of mouse/rat cell
Description: as §1, §2, §3
Radioligand Binding Assay on Rat TAAR1
as §4
as §5, with “rat” for “mouse”, “[…]” for “pM”

mouse TAAR1, sequence (Q923Y8 whole entry): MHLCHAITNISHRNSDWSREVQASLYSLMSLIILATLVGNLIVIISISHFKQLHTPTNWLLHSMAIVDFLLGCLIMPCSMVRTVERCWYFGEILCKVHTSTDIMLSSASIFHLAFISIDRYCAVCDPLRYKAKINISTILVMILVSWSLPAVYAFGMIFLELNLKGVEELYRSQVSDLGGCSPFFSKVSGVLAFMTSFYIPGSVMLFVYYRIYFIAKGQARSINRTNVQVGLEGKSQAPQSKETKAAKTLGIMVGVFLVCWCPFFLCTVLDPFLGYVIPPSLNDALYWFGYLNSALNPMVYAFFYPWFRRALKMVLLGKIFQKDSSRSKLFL
rat TAAR1, sequence (Q923Y9 whole entry): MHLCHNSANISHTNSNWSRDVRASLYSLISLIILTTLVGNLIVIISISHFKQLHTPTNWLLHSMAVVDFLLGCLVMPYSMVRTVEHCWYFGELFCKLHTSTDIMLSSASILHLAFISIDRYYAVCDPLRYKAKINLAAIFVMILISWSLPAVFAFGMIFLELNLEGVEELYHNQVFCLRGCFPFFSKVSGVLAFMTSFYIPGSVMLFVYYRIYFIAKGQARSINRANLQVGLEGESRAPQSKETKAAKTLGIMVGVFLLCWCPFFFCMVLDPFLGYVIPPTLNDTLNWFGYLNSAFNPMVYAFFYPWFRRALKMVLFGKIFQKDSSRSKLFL

Row | Structure (SMILES) | Ki (mouse TAAR1) [µM] | Ki (rat TAAR1) [µM] | Kd (mouse TAAR1; mouse TAAR1 membranes, saturation curve, read-out: dissociation constant (Kd) of radioligand) [nM] | Kd (rat TAAR1; rat TAAR1 membranes, saturation curve, read-out: dissociation constant (Kd) of radioligand) [nM]
1 | Cc1cccc(-n2cc(C(=O)Nc3ccc([C@H]4CNCCO4)cc3)nn2)c1 [Example 24, (S)—N-(4-(Morpholin-2-yl)phenyl)-1-m-tolyl-1H-1,2,3-triazole-4-carboxamide hydrochloride] | 0.0013 | 0.0069 |  | 
2 | COc1cccc(-n2cc(C(=O)Nc3ccc([C@H]4CNCCO4)cc3)nn2)c1 [Example 25, (S)-1-(3-Methoxyphenyl)-N-(4-(morpholin-2-yl)phenyl)-1H-1,2,3-triazole-4-carboxamide hydrochloride] | 0.0014 | 0.0092 |  | 
3 | CCOc1cccc(-n2cc(C(=O)Nc3ccc([C@H]4CNCCO4)cc3)nn2)c1 [Example 26, (S)-1-(3-Ethoxyphenyl)-N-(4-(morpholin-2-yl)phenyl)-1H-1,2,3-triazole-4-carboxamide hydrochloride] | 0.0011 | 0.0032 |  | 
4 | O=C(Nc1ccc([C@H]2CNCCO2)cc1)c1cnn(-c2cccc(OC(F)(F)F)c2)n1 [Example 28, (S)—N-(4-(Morpholin-2-yl)phenyl)-2-(3-(trifluoromethoxy)phenyl)-2H-1,2,3-triazole-4-carboxamide hydrochloride] | 0.0034 | 0.0156 |  | 
5 | CCN(C[C@H]1COC(N)=N1)c1ccccc1 [^3[H]—(S)-4-[(ethyl-phenyl-amino)-methyl]-4,5-dihydro-oxazol-2-ylamine, reference compound] |  |  | ~0.7 | ~2.3

Results, then the compound that gave them:

Row | Ki (mouse TAAR1) [µM] | Ki (rat TAAR1) [µM] | Kd (mouse TAAR1; mouse TAAR1 membranes, saturation curve, read-out: dissociation constant (Kd) of radioligand) [nM] | Kd (rat TAAR1; rat TAAR1 membranes, saturation curve, read-out: dissociation constant (Kd) of radioligand) [nM] | Structure (SMILES)
6 | 0.0068 | 0.0154 |  |  | O=C(Nc1ccc([C@H]2CNCCO2)cc1)c1cn(-c2cccc(OC(F)(F)F)c2)nn1 [Example 27, (S)—N-(4-(Morpholin-2-yl)phenyl)-1-(3-(trifluoromethoxy)phenyl)-1H-1,2,3-triazole-4-carboxamide hydrochloride]
7 | 0.0009 | 0.0006 |  |  | O=C(Nc1ccc([C@H]2CNCCO2)cc1)c1cn(-c2cccc(OC(F)F)c2)nn1 [Example 29, (S)-1-(3-(Difluoromethoxy)phenyl)-N-(4-(morpholin-2-yl)phenyl)-1H-1,2,3-triazole-4-carboxamide hydrochloride]
8 | 0.0032 | 0.0082 |  |  | COc1cccc(-n2ncc(C(=O)Nc3ccc([C@H]4CNCCO4)cc3)n2)c1 [Example 30, (S)-2-(3-Methoxyphenyl)-N-(4-(morpholin-2-yl)phenyl)-2H-1,2,3-triazole-4-carboxamide hydrochloride]
9 | 0.013 | 0.107 |  |  | CCOc1cccc(-n2ncc(C(=O)Nc3ccc([C@H]4CNCCO4)cc3)n2)c1 [Example 31, hydrochloride]
10 | 0.0018 | 0.045 |  |  | O=C(Nc1ccc([C@H]2CNCCO2)cc1)c1ncn(-c2ccc(OC(F)F)cc2)n1 [Example 32, (S)-1-(4-(Difluoromethoxy)phenyl)-N-(4-(morpholin-2-yl)phenyl)-1H-1,2,4-triazole-3-carboxamide hydrochloride]
11 | 0.0046 | 0.03 |  |  | O=C(Nc1ccc([C@H]2CNCCO2)cc1)c1cn(-c2ccc(Br)cn2)nn1 [Example 36, (S)-1-(5-Bromopyridin-2-yl)-N-(4-(morpholin-2-yl)phenyl)-1H-1,2,3-triazole-4-carboxamide hydrochloride]
